Data reported in US20150352108A1, “AMINO-PYRIMIDINE COMPOUNDS AS INHIBITORS OF TBK1 AND/OR IKK EPSILON” (Alzheimer's Institute of America, priority 2009, published 2015).
Like-named read-outs stand apart in the source and are kept apart here.

How the values were obtained:
TBK1 = biological target: T1, TBK1 (Homo sapiens, UniProt Q9UHD2); assay: In-vitro TBK1 kinase assay ([γ33]ATP filter-plate); type: biochemical
T1 construct: His-tag; made in house; host or cells: Sf9 insect cells
T1 sequence (Q9UHD2 1-729): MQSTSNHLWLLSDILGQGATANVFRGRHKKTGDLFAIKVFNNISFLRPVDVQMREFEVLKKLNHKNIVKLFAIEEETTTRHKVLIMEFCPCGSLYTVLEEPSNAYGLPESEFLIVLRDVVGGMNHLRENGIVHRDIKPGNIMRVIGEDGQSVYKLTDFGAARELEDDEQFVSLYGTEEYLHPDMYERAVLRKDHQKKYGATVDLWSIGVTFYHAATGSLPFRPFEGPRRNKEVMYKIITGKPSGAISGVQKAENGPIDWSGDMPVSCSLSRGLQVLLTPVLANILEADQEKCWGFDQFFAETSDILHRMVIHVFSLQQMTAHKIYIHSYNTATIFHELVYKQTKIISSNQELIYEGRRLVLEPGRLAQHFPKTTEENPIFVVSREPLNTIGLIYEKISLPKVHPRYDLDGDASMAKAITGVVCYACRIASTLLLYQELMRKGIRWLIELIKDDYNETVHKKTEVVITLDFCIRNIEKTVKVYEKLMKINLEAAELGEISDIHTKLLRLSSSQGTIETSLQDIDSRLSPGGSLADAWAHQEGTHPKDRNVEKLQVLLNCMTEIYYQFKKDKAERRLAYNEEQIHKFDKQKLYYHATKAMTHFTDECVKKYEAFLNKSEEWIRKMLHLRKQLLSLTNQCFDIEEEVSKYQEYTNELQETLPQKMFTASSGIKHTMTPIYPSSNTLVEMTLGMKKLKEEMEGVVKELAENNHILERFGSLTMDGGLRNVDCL
Method in brief: (§1)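 His-tagged Sf9-expressed kinases at 0.1 or 0.02 μg/ml (TBK1) and 0.1 or 0.015 μg/ml (IKKε) for normal and sensitized formats, with myelin basic protein or casein substrate. ATP was at 2×Km (60 μM TBK1, 32 μM IKKε) plus 0.3 μCi [γ33]ATP. Reactions ran 30-45 min, were captured on P-81 filters, and counts were normalized to DMSO.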

[1] = system: IKKε-mediated phosphorylation of IRF3; assay: In-situ phosphorylation of IRF3 (pIRF3 Ser396 ELISA) in HEK293T cells cotransfected with IRF3 and IKKε; type: cell-based; conditions: Homo sapiens, HEK-293T
Experimental: HEK293T cells were cotransfected in a 10-cm dish with IRF3 and IKKε expression plasmids using Lipofectamine 2000 (Invitrogen, Carlsbad, Calif.). The following day, cells were replated at 20,000 per well in 96-well plates and treated with test compounds (compounds according to Formula I) for 20 hours. Cell lysates were prepared and analyzed using an ELISA for phospho-Ser396 (anti-IRF3 capture antibody, Santa Cruz Biotechnology, Inc., Santa Cruz, Calif.; anti-p-Ser396 IRF3 detection antibody, Cell Signaling, Danvers, Mass.). pIRF3 levels in compound treated cells were normalized to DMSO treated cells (no compound). Cell viability was assayed in a parallel set of plates to monitor cytotoxic effects of the test compounds (CellTiter-Glo, Promega, Inc., Madison, Wis.). TBK1 activity was tested by Western blotting using a phospho-specific IRF7 antibody. Similar to above, HEK293T cells were transfected with IRF7 and TBK1 expression plasmids. Cells were seeded in 12-well plates at 150,000 per well and treated overnight with test compounds. Protein lysates were prepared and processed for Western blotting followed by detection using a phosphor-Ser477/Ser479 IRF7 antibody (BD Biosciences, San Jose, Calif.)

IKKε = biological target: T2, IKKε (Homo sapiens, UniProt Q14164); assay: In-vitro IKKε kinase assay ([γ33]ATP filter-plate); type: biochemical
T2 construct: His-tag; made in house; host or cells: Sf9 insect cells
T2 sequence (Q14164 1-716): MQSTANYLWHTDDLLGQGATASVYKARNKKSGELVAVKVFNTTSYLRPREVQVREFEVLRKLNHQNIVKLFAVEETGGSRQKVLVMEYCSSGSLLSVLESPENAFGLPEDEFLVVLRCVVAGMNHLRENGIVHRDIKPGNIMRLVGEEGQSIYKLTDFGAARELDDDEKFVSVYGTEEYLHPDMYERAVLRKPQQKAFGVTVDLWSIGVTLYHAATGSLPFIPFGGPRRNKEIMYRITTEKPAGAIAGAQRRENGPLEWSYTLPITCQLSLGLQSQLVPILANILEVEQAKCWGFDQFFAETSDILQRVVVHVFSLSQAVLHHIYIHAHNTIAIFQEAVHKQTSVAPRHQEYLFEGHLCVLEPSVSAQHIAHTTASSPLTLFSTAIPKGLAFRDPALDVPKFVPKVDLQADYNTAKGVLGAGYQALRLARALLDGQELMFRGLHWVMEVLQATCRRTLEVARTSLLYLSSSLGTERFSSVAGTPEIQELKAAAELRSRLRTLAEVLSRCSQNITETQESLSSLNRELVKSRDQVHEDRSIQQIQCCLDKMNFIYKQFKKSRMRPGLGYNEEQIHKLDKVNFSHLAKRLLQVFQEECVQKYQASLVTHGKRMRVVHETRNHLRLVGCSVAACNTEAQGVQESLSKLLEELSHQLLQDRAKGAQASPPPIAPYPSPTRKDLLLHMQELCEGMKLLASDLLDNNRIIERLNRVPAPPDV
Method in brief: as §1

[2] = text bins, read-out: IC50 for inhibition of the kinase activity of TBK1
[3] = HEK293T cells in culture, Table 3, read-out: pIRF3 ELISA IC50
[4] = HEK293T cells, 20 hours, text bins, read-out: IC50 for inhibition of the in-situ IKKε-mediated phosphorylation of IRF3
[5] = text bins, read-out: IC50 for inhibition of the kinase activity of IKKε

Row | Compound | IC50 (TBK1; Table 3, read-out: TBK1 IC50) | IC50 (TBK1; [2]) | IC50 [1, 3] | IC50 [1, 4] | IC50 (IKKε; Table 3, read-out: IKKε IC50) | IC50 (IKKε; [5])
1 | COc1cc(Nc2nccc(-c3ccc(OC4CCOCC4)c(C#N)c3)n2)ccc1C(=O)NCCN(C)C [Example 2, 4-({4-[3-cyano-4-(tetrahydero-2H-pyran-4-yloxy)phenyl]pyrimidin-2-yl}amino)-N-[2-(dimethylamino)ethyl]-2-methoxybenzamide] | 0.4 nM | < 10 nM | 71.9 nM | < 100 nM | 1.1 nM | < 5 nM
2 | COc1cc(Nc2nccc(-c3ccc(OC4CCOCC4)c(C#N)c3)n2)ccc1OCCOCCN [Example 21, 5-[2-({4-[2-(2-aminoethoxy)ethoxy]-3-methoxyphenyl}amino)pyrimidin-4-yl]-2-(tetrahydro-2H-pyran-4-yloxy)benzonitrile] |  | < 10 nM |  | < 100 nM |  | < 5 nM
3 | COc1cc(Nc2nccc(-c3ccc(OC4CCOCC4)c(C#N)c3)n2)ccc1OCCOCCNS(C)(=O)=O [Example 22] |  | < 10 nM |  | < 100 nM |  | < 5 nM
4 | COc1cc(Nc2nccc(-c3ccc(OC4CCOCC4)c(C#N)c3)n2)ccc1-n1cnnn1 [compound 664, 5-(2-{[3-Methoxy-4-(1H-tetrazol-1-yl)phenyl]amino}pyrimidin-4-yl)-2-(tetrahydro-2H-pyran-4-yloxy)benzonitrile] |  |  |  | < 100 nM |  | < 5 nM
5 | CN(C)C1CCN(C(=O)Nc2cccc(Nc3nccc(-c4ccc(OC5CCOCC5)c(C#N)c4)n3)c2)C1 (stereo not shown) [compound 667, N-[3-({4-[3-Cyano-4-(tetrahydro-2H-pyran-4-yloxy)phenyl]pyrimidin-2-yl}amino)phenyl]-3-(dimethylamino) pyrrolidine-1-carboxamide] |  |  |  | < 100 nM |  | < 5 nM
6 | N#Cc1cc(-c2ccnc(Nc3cccc(N4CCC[C@H]4CO)c3)n2)ccc1O[C@@H]1CCN(C(=O)CO)C1 [compound 669, 2-{[(3R)-1-(Hydroxyacetyl)pyrrolidin-3-yl]oxy}-5-[2-({3-[(2S)-2-(hydrfoxymethyl)pyrrolidin-1-yl]phenyl}amino)pyrimidin-4-yl]benzonitrile] |  |  |  | 100 to 250 nM |  | < 5 nM

Other lines, results leading:

Row | IC50 (TBK1; Table 3, read-out: TBK1 IC50) | IC50 (TBK1; [2]) | IC50 [1, 3] | IC50 [1, 4] | IC50 (IKKε; Table 3, read-out: IKKε IC50) | IC50 (IKKε; [5]) | Compound
7 | 0.2 nM | < 10 nM | 280 nM | 250 to 500 nM | 2.8 nM | < 5 nM | CN(C)CCCNS(=O)(=O)c1ccc(Nc2nccc(-c3ccc(OC4CCOCC4)c(C#N)c3)n2)cc1 [Example 3, 4-({4-[3-cyano-4-(tetrahydro-2H-pyran-4-yloxy)phenyl]pyrimidin-2-yl}amino)-N-[3-(dimethylamino)propyl] benzenesulfonamide]
8 |  | < 10 nM |  | 100 to 250 nM |  | < 5 nM | Cc1cc(Nc2nccc(-c3ccc(OC4CCOCC4)c(C#N)c3)n2)ccc1N1CCOCC1 [Example 18, 5-(2-{[3-methyl-4-(morpholin-4-yl)phenyl]amino}pyrimidin-4-yl)-2-(tetrahydro-2H-pyran-4-yloxy)benzonitrile]
9 |  | < 10 nM |  | 250 to 500 nM |  | < 5 nM | CN1CCN(C(=O)Nc2ccc(Nc3nccc(-c4ccc(OC5CCOCC5)c(C#N)c4)n3)cc2)CC1 [Example 20, N-[4-({4-[3-cyano-4-(tetrahydro-2H-pyran-4-yloxy)phenyl]pyrimidin-2-yl}amino)phenyl]-4-methylpiperazine-1-carboxamide]
10 |  |  |  | 250 to 500 nM |  | < 5 nM | COC1CN(C(=O)Nc2cccc(Nc3nccc(-c4ccc(OC5CCOCC5)c(C#N)c4)n3)c2)C1 [compound 668, N-[3-({4-[3-Cyano-4-(tetrahydro-2H-pyran-4-yloxy)phenyl]pyrimidin-2-yl}amino)phenyl]-3-methoxyazetidine-1-carboxamide]
11 |  |  |  | 250 to 500 nM |  | < 5 nM | N#Cc1cc(-c2ccnc(Nc3ccc(F)c(OC4CCNC4)c3)n2)ccc1OCC1CC1 (stereo not shown) [compound 670, 2-(Cyclopropyl-methoxy)-5-(2-{[4-fluoro-3-(pyrrolidin-3-yloxy)phenyl]amino}pyrimidin-4-yl)benzonitrile]
